Series [1] in a line: Effect of pH on production/decomposition of GSNO in aqueous solution of potassium nitrite and L-glutathione. It is filed as physicochemical. As to the method:
The following reagents were prepared: • Reagent 1: Na-phosphate buffer (pH 7.4, 0.1 M) • Reagent 2: Griess reagent: 20 mg of N-(1-Naphthyl)ethylendiamine dihydrochloride (NADD)+500 mg of sulphanilamide dissolved in 2 mL of DMSO. (N.B. This solution is light sensitive and should be kept in the dark as much as possible) • Reagent 3: Mercuric chloride (10 mM) in DMSO (13.58 mg of HgCl2 in 5 mL of DMSO)
The six-step procedure set out below was then followed: • 1. Dispense 1.5 mL of Reagent 1 into a plastic cuvette • 2. Add 200 μL of the sample (i.e. sample in which GSNO concentration is to be determined) • 3. Add 1.17 mL of DI water • 4. Add 100 μL of Reagent 2 • 5. Add 30 μL of Reagent 3 and give the solution a good mix • 6. Read absorbance of the resulting mixture at 496 nm in 10 min.
The concentration of GSNO can be calculated from the absorbance reading using the molar absorption coefficient for GSNO=12,500 M^−1 cm^−1.
The rate of the GSNO production and subsequent decomposition in solutions containing potassium nitrite (5 mM) and L-glutathione (5 mM) was studied at pH 3 (citrate-phosphate buffer, 0.1 M), pH 5 (citrate-phosphate buffer, 0.1 M) and pH 7 (phosphate buffer, 0.1 M).

For series [2] the following is noted: under normal conditions; cited from earlier work.
Series [3] in a line: Stability of GSNO in dried PVA layer. It is filed as physicochemical. Conditions: in the dried layer of PVA, especially if stored in a moisture-free atmosphere. Here is the method:
In one preferred embodiment of this type, the dressing comprises a layer of dried PVA containing pre-generated S-nitrosothiol. The layer is formed from PVA, a source of nitrite (preferably potassium nitrite) and a thiol (preferably L-glutathione). In a typical example of this embodiment both of these additives are added to the PVA solution prior to the drying. S-nitrosothiol (GSNO in the preferred case) is generated within the layer during the drying step. Nitrosothiols are known to be rather unstable in aqueous solutions. Nevertheless, GSNO was found very stable in the dried layer of PVA, especially if stored in a moisture-free atmosphere.

The next series concerns moist skin. Nature of the series: Skin reddening (dermal vasodilation) after applying dried PVA layer with pre-generated GSNO onto moist skin. It is filed as in vivo. An excerpt: GSNO can be released from the layer simply by applying the layer onto a moist surface (e.g. wound bed). Once released, GSNO undergoes a slow decomposition to generate nitric oxide. The release of GSNO from the layer is relatively rapid.

The conditions of series [4]: under normal conditions; cited from earlier work. This is another data set of the same source.

On to `N[C@@H](CCC(=O)N[C@@H](CSN=O)C(=O)NCC(=O)O)C(=O)O` [GSNO, S-nitrosoglutathione], for which the “Stability of GSNO produced” value in series [1] (pH 5 compared with pH 3) is listed as “slightly higher at pH 5 compared with that at pH 3”. In addition, the “Initial production of GSNO” value in series [1] (pH 5 compared with pH 3 (citrate-phosphate buffer, 0.1 M)) was “slower at pH 5 compared with pH 3”. Besides, the “Production of GSNO” value in series [1] (pH 7 (phosphate buffer, 0.1 M), potassium nitrite 5 mM, L-glutathione 5 mM) is recorded as “No production”. Further, the “Time to total (100%) decomposition” value in series [2] is reported as “hours/days”. Moreover, the “Stability of GSNO” value in series [3] was “very stable”. Also, in the series with moist skin (after removal of the patch), the “Reversibility of skin reddening” value was “totally reversible”. Also, the “Time to reddening of the skin due to dermal vasodilation” value with moist skin (dried PVA layer with pre-generated GSNO applied onto moist skin) is listed as not above 1 min.

Regarding `[N]=O` [NO, Nitric oxide], the “Maximum solubility in water” value in series [4] is reported as “approximately 1.7 mM”.

The values above are taken from US20090081279A1, “Skin Dressings” (priority 2005, published 2009).
